Source: patent publication US20150140123A1, “Protein expression analyses for identifying genotoxic compounds” (Merck Patent GmbH, priority 2012, published 2015)
Like-named read-outs stand apart in the source and are kept apart here.

Test system: HepG2 cells
Assay: High content imaging cytotoxicity parameters: selected cell count per valid field (SCC) and CMFDA cytoplasm average intensity
Experimental: HepG2 cells (Order No. HB-8065, Lot. 58483209, ATCC, Manassas, USA) were cultured in DMEM/F12 with L-Glutamine and 15 mM Hepes supplemented with 10% (v/v) FBS, 1% (v/v) penicillin (10 kU/ml)/streptomycin (10 mg/ml) solution, 0.1% (v/v) gentamicin (50 mg/ml), and 1 mM sodium pyruvate at 37° C. and 5% CO2 in culture flasks. Depending on the experiment, an appropriate number of cells were seeded onto plates after detaching of the cells using trypsin and cells were cultured at 37° C. and 5% CO2 for 24 h prior to treatment. All experiments were performed three times with cells of passages 4-20.
Cells were seeded onto black Poly-D-Lysin coated 96-well-plates (BD Biocoat, Franklin Lakes, USA) (0.02×10^6 cells/well) and left 24 h for adherence and then treated with test compounds at a maximum concentration of 1 mM which is recommended by the ICH S2(R1) guideline (EMA, 2011). For each compound, nine concentrations were tested with 2-fold serial dilutions. DMSO 1% (v/v) served as vehicle control for the experiments. The treatment procedure was different for direct-genotoxic and pro-genotoxic compounds. The treatment for direct genotoxic compounds was ongoing and was repeated daily over 48 h. Pro-genotoxic compounds were incubated for 6 h together with metabolic activation system (to limit the cytotoxic effect of the S9-mixture). After this period, cells were washed with cell media followed by 18-repeated daily over 48 h. The metabolic activation system used consisted of the following components and concentrations: 8 mM MgCl2, 32.8 mM KCl, 12 mM NADPH, 124 mM phosphate buffer and 2500 pmol/ml cytochrome P450 (CYP) content in the pre-mixture corresponding to 2.4 mM MgCl2, 9.8 mM KCl, 3.6 mM NADPH, 37.2 mM phosphate buffer, and 750 pmol/ml CYP as final concentrations after dilution 1:3.33 with cell culture media.
After treatment, cells were rinsed with PBS (Gibco Invitrogen, Karlsruhe, Germany), and then stained with 10 μM CellTracker Green 5-Chloromethylfluorescein Diacetate (CMFDA) (Invitrogen, Karlsruhe, Germany) in cell culture media for 30 min. CMFDA is per se non-fluorescent and is hydrolyzed by esterase in viable cells to a fluorescent-dye. The reaction with thiol groups leads to a cell-impermeable fluorescent-dye-adduct. The esterase activity can be used as an indicator for viability of cells (Papadopoulos et al., 1994, J Immunol Methods 177, 101-11). Afterwards, cells were washed with PBS and fixed with 3.7% Formaldehyde (Sigma-Aldrich, Taufkirchen, Germany) in PBS for 20 min. After that, cells were washed with PBS and blocked and permeabilized with 2% donkey serum (Millipore, Schwalbach, Germany) and 0.25% Triton X-100 (Sigma-Aldrich, Taufkirchen, Germany) in PBS for 30 min. Primary antibodies were diluted in Blocking/Permeabilization solution to final concentrations of 4 μg/ml anti-p-Chk1 (Ser345) goat polyclonal antibody IgG (santa cruz, Santa Cruz, USA), 4 μg/ml anti-p-ATM (Ser1981) mouse monoclonal antibody IgG1K (Millipore, Schwalbach, Germany) and added to the cells. After incubation for 16-18 h, cells were washed with 0.05% Tween 20 (Calbiochem, Darmstadt, Germany) in PBS, and the secondary antibody/16 μM Hoechst staining solution Blocking/Permeabilization solution was added. Secondary antibodies were diluted 1:400 (Alexa Fluor 555 donkey anti-goat, Alexa Fluor 647 donkey anti-mouse, Invitrogen, Karlsruhe, Germany). After an incubation of 1 h, followed by two additional washing steps with 0.05% Tween 20, cells were washed with PBS and finally PBS was added and cells were measured.
Image acquisition was performed on the ArrayScan VTI HCS Reader (Cellomics, Pittsburgh, USA) using a 20× objective. To detect enough cells, 50 images starting at the middle of each well were gathered.
• Channel 1: selected cell count per valid field • Channel 2: CMFDA cytoplasm average intensity • Channel 3: p-Chk1 (Ser345) nucleus average intensity • Channel 4: p-ATM (Ser1981) nucleus average intensity

[1] = HepG2 cells, 48 h, CMFDA cytoplasm average intensity, with rat liver S9 (+S9)
[2] = HepG2 cells, 48 h, CMFDA cytoplasm average intensity, without metabolic activation (−S9)
[3] = HepG2 cells, 48 h, selected cell count per valid field, with rat liver S9 (+S9)
[4] = HepG2 cells, 48 h, selected cell count per valid field, without metabolic activation (−S9)

SMILES	CMFDA +S9 highest conc. <50% cytotox. over control (human, 48 h)	CMFDA −S9 highest conc. <50% cytotox. over control (human, 48 h)	SCC +S9 highest conc. <50% cytotox. over control (human, 48 h)	SCC −S9 highest conc. <50% cytotox. over control (human, 48 h)	further results
Oc1cccc(O)c1 [1,3-Dihydroxybenzene (resorcinol), 1,3-Dihydroxybenzene]	500 µM	1000 µM	1000 µM	1000 µM	
CC(=O)Nc1ccc2c(c1)Cc1ccccc1-2 [2-Acetylaminofluorene]					CMFDA +S9 highest conc. <50% cytotox. over control [1]: 1000 µM; CMFDA −S9 highest conc. <50% cytotox. over control [2]: 1000 µM; SCC +S9 highest conc. <50% cytotox. over control [3]: 1000 µM; SCC −S9 highest conc. <50% cytotox. over control [4]: 1000 µM
CCCC(O)C(CC)CO (stereo not drawn) [2-Ethyl-1,3-hexanediol]	1000 µM	1000 µM	1000 µM	1000 µM	
Cc1c2ccccc2c(C)c2c1ccc1ccccc12 [7,12-Dimethylbenz[a]anthracene]					CMFDA +S9 highest conc. <50% cytotox. over control (human): 1000 µM; CMFDA −S9 highest conc. <50% cytotox. over control (human): 250 µM; SCC +S9 highest conc. <50% cytotox. over control (human): 500 µM; SCC −S9 highest conc. <50% cytotox. over control (human): 125 µM
C[N+](C)(C)CCCl.[Cl-] [(2-chloroethyl)trimethyl-ammonium chloride]					CMFDA +S9 highest conc. <50% cytotox. over control (human): 1000 µM; CMFDA −S9 highest conc. <50% cytotox. over control (human): 1000 µM; SCC +S9 highest conc. <50% cytotox. over control (human): 1000 µM; SCC −S9 highest conc. <50% cytotox. over control (human): 1000 µM
Nc1nc[nH]n1 [Amitrole]	1000 µM	1000 µM	1000 µM	1000 µM	
CC1(C)S[C@@H]2[C@H](NC(=O)[C@H](N)c3ccccc3)C(=O)N2[C@H]1C(=O)O [Ampicillin trihydrate]	1000 µM	1000 µM	1000 µM	1000 µM	
c1ccc2c(c1)cc1ccc3cccc4ccc2c1c34 [Benzo[a]pyrene]					CMFDA +S9 highest conc. <50% cytotox. over control (human): 125 µM; CMFDA −S9 highest conc. <50% cytotox. over control (human): 125 µM; SCC +S9 highest conc. <50% cytotox. over control (human): 125 µM; SCC −S9 highest conc. <50% cytotox. over control (human): 3.91 µM
OCc1ccccc1 [Benzyl alcohol]	1000 µM	1000 µM	1000 µM	1000 µM	
O=C(N[C@H](CO)[C@H](O)c1ccc([N+](=O)[O-])cc1)C(Cl)Cl [Chloramphenicol]	1000 µM	1000 µM	1000 µM	1000 µM	
COc1cc(/C=C/C(=O)CC(=O)/C=C/c2ccc(O)c(OC)c2)ccc1O [Curcumin]	125 µM	31.25 µM	125 µM	31.25 µM	
O=C1CCCCC1 [Cyclohexanone]	1000 µM	1000 µM	1000 µM	1000 µM	
O=P1(N(CCCl)CCCl)NCCCO1 (stereo not drawn) [Cyclophosphamide]					CMFDA +S9 highest conc. <50% cytotox. over control (human): 62.5 µM; CMFDA −S9 highest conc. <50% cytotox. over control (human): 1000 µM; SCC +S9 highest conc. <50% cytotox. over control (human): 1000 µM; SCC −S9 highest conc. <50% cytotox. over control (human): 1000 µM
CC(C)[C@@H]1CC[C@@H](C)C[C@H]1O [D,L-menthol]					CMFDA +S9 highest conc. <50% cytotox. over control: 1000 µM; CMFDA −S9 highest conc. <50% cytotox. over control: 1000 µM; SCC +S9 highest conc. <50% cytotox. over control: 1000 µM; SCC −S9 highest conc. <50% cytotox. over control: 1000 µM
OC[C@@H](O)[C@@H](O)[C@H](O)[C@H](O)CO [D-mannitol]	1000 µM	1000 µM	1000 µM	1000 µM	
CCCCC(CC)COC(=O)c1ccccc1C(=O)OCC(CC)CCCC (stereo not drawn) [Di-(2-ethylhexyl)phthalate]					CMFDA +S9 highest conc. <50% cytotox. over control (human): 1000 µM; CMFDA −S9 highest conc. <50% cytotox. over control (human): 1000 µM; SCC +S9 highest conc. <50% cytotox. over control (human): 1000 µM; SCC −S9 highest conc. <50% cytotox. over control (human): 1000 µM
OCCNCCO [Diethanolamine]	1000 µM	1000 µM	1000 µM	1000 µM	
CC[C@H]1OC(=O)[C@H](C)[C@@H](O[C@H]2C[C@@](C)(OC)[C@@H](O)[C@H](C)O2)[C@H](C)[C@@H](O[C@@H]2O[C@H](C)C[C@H](N(C)C)[C@H]2O)[C@](C)(O)C[C@@H](C)C(=O)[C@H](C)[C@@H](O)[C@]1(C)O [Erythromycin stearate]		62.5 µM		31.25 µM	
CCc1cc(C(N)=S)ccn1 [Ethionamide]	1000 µM	1000 µM	1000 µM	1000 µM	
C=CC(=O)OCC [Ethyl acrylate]					CMFDA +S9 highest conc. <50% cytotox. over control (human): 1000 µM; CMFDA −S9 highest conc. <50% cytotox. over control (human): 1000 µM; SCC +S9 highest conc. <50% cytotox. over control (human): 1000 µM; SCC −S9 highest conc. <50% cytotox. over control (human): 1000 µM
COc1cc([C@@H]2c3cc4c(cc3[C@@H](O[C@@H]3O[C@@H]5CO[C@@H](C)O[C@H]5[C@H](O)[C@H]3O)[C@H]3COC(=O)[C@H]23)OCO4)cc(OC)c1O [Etoposide]	1000 µM	1000 µM	1000 µM		
CN(C)C(=O)Nc1cccc(C(F)(F)F)c1 [Fluometron]	1000 µM	1000 µM	1000 µM	500 µM	
ClC(Cl)(Cl)C(Cl)(Cl)Cl [Hexachloroethane]					CMFDA +S9 highest conc. <50% cytotox. over control [1]: 1000 µM; CMFDA −S9 highest conc. <50% cytotox. over control [2]: 1000 µM; SCC +S9 highest conc. <50% cytotox. over control [3]: 1000 µM; SCC −S9 highest conc. <50% cytotox. over control [4]: 1000 µM
Oc1ccc(O)cc1 [Hydroquinone]	1000 µM	250 µM	1000 µM	250 µM	
Cn1c(N)nc2c3cccnc3ccc21 [IQ, 2-Amino-3methylimidazo[4,5-f]quinoline]					CMFDA +S9 highest conc. <50% cytotox. over control [1]: 125 µM; CMFDA −S9 highest conc. <50% cytotox. over control [2]: 1000 µM; SCC +S9 highest conc. <50% cytotox. over control [3]: 125 µM; SCC −S9 highest conc. <50% cytotox. over control [4]: 1000 µM
CC(C)C=O [Isobutyraldehyde]	1000 µM	1000 µM	1000 µM	1000 µM	
Nc1nc(N)nc(N)n1 [Melamine]					CMFDA +S9 highest conc. <50% cytotox. over control [1]: 1000 µM; CMFDA −S9 highest conc. <50% cytotox. over control [2]: 1000 µM; SCC +S9 highest conc. <50% cytotox. over control [3]: 1000 µM; SCC −S9 highest conc. <50% cytotox. over control [4]: 1000 µM
